Active and inactive are the calls of the source. The rule behind the calls is not given here.
How the values were obtained:
Mus musculus [1] = species: Mus musculus; test: animal or person
Description: Anticonvulsant activity in mouse assessed as reduction in PTZ-induced seizures

Carbonic anhydrase 9 = Carbonic anhydrase 9 (Homo sapiens, UniProt Q16790)
Description: Inhibition of human carbonic anhydrase-9 catalytic domain assessed as reduction in CO2 hydration after 15 mins by phenol red dye based stopped flow assay

Mus musculus [2] = test: Anticonvulsant activity in ip dosed mouse assessed as reduction in PTZ-induced seizures pretreated for 30 mins followed by PTZ addition; format: functional, organism-based
[3] = Toxicity in mouse in mouse model of PTZ-induced seizures assessed as clonus occurance at 20 to 30 mg/kg, ip pretreated for 30 mins followed by PTZ addition; format: organism-based; conditions: in vivo
[4] = Toxicity in mouse assessed as sedation at 20 to 30 mg/kg; format: organism-based; conditions: in vivo

Compound: CC1(C)O[C@@H]2[C@@H](CO[C@@]3(COS(N)(=O)=O)OC(C)(C)O[C@@H]23)O1 [TOPIRAMATE]
- ED50 (Mus musculus [1]): 22 mg/kg

Compound: N#CC1(c2ccccc2)CCN(C(=O)c2ccc(S(N)(=O)=O)cc2)CC1
- Ki (Carbonic anhydrase 9): 18.4 nM

Compound: NS(=O)(=O)c1ccc(C(=O)N2CCC(O)(c3ccc(Br)cc3)CC2)cc1
- Ki (Carbonic anhydrase 9): 4.7 nM
- Activity (Mus musculus [2]): Active
- Activity [3]: Toxic
- Activity [4]: Toxic

Compound: CC(=O)C1(c2ccccc2)CCN(C(=O)c2ccc(S(N)(=O)=O)cc2)CC1
- Ki (Carbonic anhydrase 9): 3.1 nM

Compound: CC1CCN(C(=O)c2ccc(S(N)(=O)=O)cc2)CC1
- Ki (Carbonic anhydrase 9): 3.4 nM

Compound: CC1CCCCN1C(=O)c1ccc(S(N)(=O)=O)cc1 (centres undefined)
- Ki (Carbonic anhydrase 9): 2.6 nM

Compound: NS(=O)(=O)c1ccc(C(=O)N2CCC(Cc3ccccc3)CC2)cc1
- Ki (Carbonic anhydrase 9): 7 nM

Compound: NS(=O)(=O)c1ccc(C(=O)N2CCCCC2)cc1
- Ki (Carbonic anhydrase 9): 3.1 nM

Compound: NS(=O)(=O)c1ccc(C(=O)N2CCC(c3ccccc3)CC2)cc1
- Ki (Carbonic anhydrase 9): 3.3 nM
- Activity (Mus musculus [2]): Active
- Activity [3]: Toxic
- Activity [4]: Toxic

Compound: NS(=O)(=O)c1ccc(C(=O)N2CCC(O)(c3ccc(Cl)cc3)CC2)cc1
- Ki (Carbonic anhydrase 9): 24.9 nM

Compound: NS(=O)(=O)c1ccc(C(=O)N2CCC(O)(c3ccccc3)CC2)cc1
- Ki (Carbonic anhydrase 9): 22.6 nM

Compound: NS(=O)(=O)c1ccc(C(=O)N2CCN(c3ccccc3)CC2)cc1
- Ki (Carbonic anhydrase 9): 4.8 nM

Compound: NS(=O)(=O)c1ccc(C(=O)N2CCN(Cc3ccc(F)cc3)CC2)cc1
- Ki (Carbonic anhydrase 9): 45.1 nM
- Activity (Mus musculus [2]): Active
- Activity [3]: Toxic
- Activity [4]: Toxic

Compound: NS(=O)(=O)c1ccc(C(=O)N2CCN(Cc3ccccc3)CC2)cc1
- Ki (Carbonic anhydrase 9): 33.1 nM

Compound: NS(=O)(=O)c1ccc(C(=O)N2CCCCCC2)cc1
- Ki (Carbonic anhydrase 9): 16.8 nM

Compound: CC1CCCN(C(=O)c2ccc(S(N)(=O)=O)cc2)C1 (centres undefined)
- Ki (Carbonic anhydrase 9): 2.4 nM

Compound: NS(=O)(=O)c1ccc(C(=O)N2CCN(C(c3ccccc3)c3ccccc3)CC2)cc1
- Ki (Carbonic anhydrase 9): 28.2 nM
- Activity (Mus musculus [2]): Active
- Activity [3]: Toxic
- Activity [4]: Toxic

— ChEMBL document CHEMBL4330089, “Exploring structural properties of potent human carbonic anhydrase inhibitors bearing a 4-(cycloalkylamino-1-carbonyl)benzenesulfonamide moiety” (Eur J Med Chem, 2019)
